Laboratory results: article doi:10.1101/2024.08.13.607785v1 (biorxiv, 2024)

Tests used:
Parameters in all cases: species or system mixed lysate of K562, MV4-11, THP-1, NCI-H1155
[1] = biological target: T1, Cyclin-G-associated kinase ; GAK ; O14976 (Homo sapiens, UniProt O14976); conditions: DDA-MS residual binding; binder
T1 sequence (O14976 1-1311): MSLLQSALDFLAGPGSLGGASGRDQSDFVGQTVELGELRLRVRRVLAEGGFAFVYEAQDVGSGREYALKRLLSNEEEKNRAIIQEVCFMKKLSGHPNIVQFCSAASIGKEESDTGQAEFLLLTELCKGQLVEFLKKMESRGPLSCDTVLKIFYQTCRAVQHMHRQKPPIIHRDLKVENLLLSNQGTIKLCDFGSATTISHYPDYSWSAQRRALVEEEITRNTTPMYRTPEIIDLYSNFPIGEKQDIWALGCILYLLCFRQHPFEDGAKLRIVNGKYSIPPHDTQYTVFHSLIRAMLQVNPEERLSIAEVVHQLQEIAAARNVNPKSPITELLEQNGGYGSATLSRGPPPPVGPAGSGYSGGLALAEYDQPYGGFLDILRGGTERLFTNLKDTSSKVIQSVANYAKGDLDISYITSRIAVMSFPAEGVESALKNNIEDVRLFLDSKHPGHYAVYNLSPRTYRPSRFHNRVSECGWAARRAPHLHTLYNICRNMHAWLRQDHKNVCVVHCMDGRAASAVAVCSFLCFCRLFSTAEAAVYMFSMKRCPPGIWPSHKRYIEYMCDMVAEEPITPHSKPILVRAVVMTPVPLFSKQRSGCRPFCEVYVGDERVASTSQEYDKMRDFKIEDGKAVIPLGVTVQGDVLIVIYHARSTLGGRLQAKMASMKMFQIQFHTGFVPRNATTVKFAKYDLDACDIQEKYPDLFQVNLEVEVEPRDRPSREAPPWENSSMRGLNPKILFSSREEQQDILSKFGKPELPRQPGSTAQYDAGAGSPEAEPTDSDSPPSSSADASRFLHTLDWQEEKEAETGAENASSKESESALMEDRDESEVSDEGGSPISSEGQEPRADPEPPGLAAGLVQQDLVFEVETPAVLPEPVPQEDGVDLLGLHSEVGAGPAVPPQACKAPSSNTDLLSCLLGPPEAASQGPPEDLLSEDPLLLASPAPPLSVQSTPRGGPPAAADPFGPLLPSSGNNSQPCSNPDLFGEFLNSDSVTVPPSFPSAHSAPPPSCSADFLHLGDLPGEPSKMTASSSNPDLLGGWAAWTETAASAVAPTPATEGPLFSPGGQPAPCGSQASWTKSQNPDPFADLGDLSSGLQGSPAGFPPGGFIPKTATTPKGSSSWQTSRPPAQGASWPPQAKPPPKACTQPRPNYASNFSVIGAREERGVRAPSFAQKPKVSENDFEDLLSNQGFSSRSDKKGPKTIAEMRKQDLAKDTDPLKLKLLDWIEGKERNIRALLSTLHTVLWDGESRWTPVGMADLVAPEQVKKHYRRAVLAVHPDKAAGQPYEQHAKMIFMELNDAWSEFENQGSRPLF

[2] = biological target: Epithelial discoidin domain-containing receptor 1 ; DDR1 ; Q08345 (Homo sapiens, UniProt Q08345); conditions: binder
[3] = biological target: Isoform 3 of Serine/threonine-protein kinase SIK3 ; SIK3-7 ; Q9Y2K2-7 (Homo sapiens, UniProt Q9Y2K2); conditions: DDA-MS residual binding; binder
[4] = biological target: Mitogen-activated protein kinase 14 ; MAPK14-2 ; Q16539-2 (Homo sapiens, UniProt Q16539); conditions: DDA-MS residual binding; binder
[5] = biological target: Mitogen-activated protein kinase kinase kinase 4 ; MAP3K4 ; Q9Y6R4 (Homo sapiens, UniProt Q9Y6R4); conditions: binder
[6] = biological target: Phosphatidylinositol 4-kinase alpha ; PI4KA ; P42356 (Homo sapiens, UniProt P42356); conditions: DDA-MS residual binding; binder
[7] = biological target: Receptor-interacting serine/threonine-protein kinase 2 ; RIPK2 ; O43353 (Homo sapiens, UniProt O43353); conditions: DDA-MS residual binding; binder
[8] = biological target: Serine/threonine-protein kinase LMTK2 ; LMTK2 ; Q8IWU2 (Homo sapiens, UniProt Q8IWU2); conditions: DDA-MS residual binding; binder
[9] = biological target: Tyrosine-protein kinase FRK ; FRK ; P42685 (Homo sapiens, UniProt P42685); conditions: DDA-MS residual binding; binder
[10] = biological target: Tyrosine-protein kinase Yes ; YES1 ; P07947 (Homo sapiens, UniProt P07947); conditions: binder
Tyrosine-protein kinase Yes ; YES1 ; P07947, sequence (P07947 whole entry): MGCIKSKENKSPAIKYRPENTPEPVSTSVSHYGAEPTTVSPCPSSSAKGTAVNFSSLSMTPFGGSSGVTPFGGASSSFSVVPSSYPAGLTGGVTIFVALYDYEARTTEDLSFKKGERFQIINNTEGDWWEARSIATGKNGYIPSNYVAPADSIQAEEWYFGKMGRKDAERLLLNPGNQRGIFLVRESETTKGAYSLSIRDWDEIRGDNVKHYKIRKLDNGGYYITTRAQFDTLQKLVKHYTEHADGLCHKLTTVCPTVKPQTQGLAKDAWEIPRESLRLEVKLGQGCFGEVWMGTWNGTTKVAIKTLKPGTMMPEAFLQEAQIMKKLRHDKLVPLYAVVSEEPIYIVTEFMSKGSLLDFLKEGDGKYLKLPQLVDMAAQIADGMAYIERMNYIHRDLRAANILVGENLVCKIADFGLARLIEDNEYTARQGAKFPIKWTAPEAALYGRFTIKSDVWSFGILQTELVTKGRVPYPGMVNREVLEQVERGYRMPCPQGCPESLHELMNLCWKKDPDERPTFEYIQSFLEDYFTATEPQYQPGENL

Mitogen-activated protein kinase kinase kinase 4 ; MAP3K4 ; Q9Y6R4, sequence (Q9Y6R4 whole entry): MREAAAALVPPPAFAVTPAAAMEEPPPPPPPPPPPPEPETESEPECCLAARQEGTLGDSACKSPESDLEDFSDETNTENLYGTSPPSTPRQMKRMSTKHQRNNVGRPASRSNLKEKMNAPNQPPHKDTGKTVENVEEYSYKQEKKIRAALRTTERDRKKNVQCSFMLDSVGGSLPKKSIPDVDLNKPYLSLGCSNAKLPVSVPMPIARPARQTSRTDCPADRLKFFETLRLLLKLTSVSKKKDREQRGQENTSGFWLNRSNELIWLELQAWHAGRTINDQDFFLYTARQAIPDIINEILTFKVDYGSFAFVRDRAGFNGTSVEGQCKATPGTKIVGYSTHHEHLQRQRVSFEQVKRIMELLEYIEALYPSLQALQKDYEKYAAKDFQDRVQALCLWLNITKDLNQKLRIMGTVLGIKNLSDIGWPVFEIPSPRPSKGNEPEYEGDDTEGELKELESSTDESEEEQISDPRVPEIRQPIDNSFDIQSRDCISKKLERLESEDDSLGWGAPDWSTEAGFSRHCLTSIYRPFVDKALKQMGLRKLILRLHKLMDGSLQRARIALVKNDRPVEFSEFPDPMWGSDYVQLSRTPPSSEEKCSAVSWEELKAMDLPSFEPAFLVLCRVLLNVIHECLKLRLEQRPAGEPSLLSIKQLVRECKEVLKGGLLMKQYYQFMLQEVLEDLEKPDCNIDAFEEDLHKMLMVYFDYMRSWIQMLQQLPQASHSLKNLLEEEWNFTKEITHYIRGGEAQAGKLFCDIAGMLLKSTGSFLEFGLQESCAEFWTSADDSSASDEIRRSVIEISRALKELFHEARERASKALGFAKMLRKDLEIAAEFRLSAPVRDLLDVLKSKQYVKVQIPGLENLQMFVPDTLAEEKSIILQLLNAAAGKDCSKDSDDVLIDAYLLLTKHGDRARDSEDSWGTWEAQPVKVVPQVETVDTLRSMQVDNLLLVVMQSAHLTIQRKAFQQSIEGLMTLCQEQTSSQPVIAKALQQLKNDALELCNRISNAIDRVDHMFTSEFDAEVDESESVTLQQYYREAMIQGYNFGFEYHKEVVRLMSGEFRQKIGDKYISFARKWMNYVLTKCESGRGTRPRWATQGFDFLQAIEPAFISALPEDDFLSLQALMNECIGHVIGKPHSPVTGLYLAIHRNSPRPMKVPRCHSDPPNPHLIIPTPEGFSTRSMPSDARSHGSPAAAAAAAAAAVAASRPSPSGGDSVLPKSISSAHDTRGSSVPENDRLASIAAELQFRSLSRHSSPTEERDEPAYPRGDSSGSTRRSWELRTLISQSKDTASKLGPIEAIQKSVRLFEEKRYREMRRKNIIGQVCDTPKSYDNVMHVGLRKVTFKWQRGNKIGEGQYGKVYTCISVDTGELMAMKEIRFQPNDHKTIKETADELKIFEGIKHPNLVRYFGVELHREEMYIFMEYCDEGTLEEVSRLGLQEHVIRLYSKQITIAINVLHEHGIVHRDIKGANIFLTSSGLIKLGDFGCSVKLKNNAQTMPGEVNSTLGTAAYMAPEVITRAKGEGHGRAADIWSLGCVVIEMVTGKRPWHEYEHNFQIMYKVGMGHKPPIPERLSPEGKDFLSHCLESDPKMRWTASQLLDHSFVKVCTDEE
Receptor-interacting serine/threonine-protein kinase 2 ; RIPK2 ; O43353, sequence (O43353 whole entry, one chain of several): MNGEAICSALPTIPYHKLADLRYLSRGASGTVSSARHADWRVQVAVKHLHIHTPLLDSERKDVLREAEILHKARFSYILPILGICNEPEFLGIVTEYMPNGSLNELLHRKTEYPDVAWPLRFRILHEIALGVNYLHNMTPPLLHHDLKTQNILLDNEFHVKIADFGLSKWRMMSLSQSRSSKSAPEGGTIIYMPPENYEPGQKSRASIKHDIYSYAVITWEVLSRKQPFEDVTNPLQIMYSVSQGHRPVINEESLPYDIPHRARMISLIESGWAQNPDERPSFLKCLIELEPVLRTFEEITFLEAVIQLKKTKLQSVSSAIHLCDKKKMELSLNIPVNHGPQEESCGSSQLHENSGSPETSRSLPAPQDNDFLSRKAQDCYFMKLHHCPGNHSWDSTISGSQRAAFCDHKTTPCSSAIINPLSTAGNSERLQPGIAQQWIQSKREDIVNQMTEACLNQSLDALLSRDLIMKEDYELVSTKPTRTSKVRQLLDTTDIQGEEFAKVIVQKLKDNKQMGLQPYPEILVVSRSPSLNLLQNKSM
Mitogen-activated protein kinase 14 ; MAPK14-2 ; Q16539-2, sequence (Q16539 whole entry): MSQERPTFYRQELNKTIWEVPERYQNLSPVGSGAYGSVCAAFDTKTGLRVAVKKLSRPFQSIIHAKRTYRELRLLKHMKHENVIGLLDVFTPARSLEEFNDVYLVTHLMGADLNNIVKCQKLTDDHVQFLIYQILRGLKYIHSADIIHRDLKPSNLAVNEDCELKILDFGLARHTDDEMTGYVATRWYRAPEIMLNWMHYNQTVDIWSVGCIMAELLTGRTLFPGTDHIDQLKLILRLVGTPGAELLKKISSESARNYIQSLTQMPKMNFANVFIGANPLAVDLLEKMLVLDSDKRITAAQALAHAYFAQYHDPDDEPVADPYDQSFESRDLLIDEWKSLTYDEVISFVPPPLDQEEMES
Epithelial discoidin domain-containing receptor 1 ; DDR1 ; Q08345, sequence (Q08345 whole entry, the tested form may be a part, canonical isoform): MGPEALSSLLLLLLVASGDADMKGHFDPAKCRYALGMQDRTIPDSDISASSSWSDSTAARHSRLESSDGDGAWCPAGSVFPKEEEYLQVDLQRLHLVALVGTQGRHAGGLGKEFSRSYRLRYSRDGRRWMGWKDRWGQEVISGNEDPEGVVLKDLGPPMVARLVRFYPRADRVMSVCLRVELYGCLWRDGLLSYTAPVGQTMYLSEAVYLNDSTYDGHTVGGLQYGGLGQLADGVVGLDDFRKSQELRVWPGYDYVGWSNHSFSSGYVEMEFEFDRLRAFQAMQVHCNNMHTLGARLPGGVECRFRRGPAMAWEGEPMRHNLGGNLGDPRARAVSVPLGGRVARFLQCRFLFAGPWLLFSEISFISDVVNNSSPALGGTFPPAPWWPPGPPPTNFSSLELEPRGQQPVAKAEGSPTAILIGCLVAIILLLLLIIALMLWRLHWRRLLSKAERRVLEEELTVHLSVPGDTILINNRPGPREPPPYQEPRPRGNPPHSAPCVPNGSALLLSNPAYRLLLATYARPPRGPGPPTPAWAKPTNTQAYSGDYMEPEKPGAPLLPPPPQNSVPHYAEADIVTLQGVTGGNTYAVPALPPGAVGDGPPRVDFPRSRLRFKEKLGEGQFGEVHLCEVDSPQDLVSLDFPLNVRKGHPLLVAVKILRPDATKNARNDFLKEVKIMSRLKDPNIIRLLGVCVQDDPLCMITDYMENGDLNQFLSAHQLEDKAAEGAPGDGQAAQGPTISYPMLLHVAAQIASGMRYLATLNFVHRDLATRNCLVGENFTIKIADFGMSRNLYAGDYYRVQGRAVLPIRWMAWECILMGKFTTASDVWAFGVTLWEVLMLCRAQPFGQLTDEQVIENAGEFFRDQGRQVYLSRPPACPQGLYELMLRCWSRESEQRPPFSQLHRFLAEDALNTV
Tyrosine-protein kinase FRK ; FRK ; P42685, sequence (P42685 whole entry): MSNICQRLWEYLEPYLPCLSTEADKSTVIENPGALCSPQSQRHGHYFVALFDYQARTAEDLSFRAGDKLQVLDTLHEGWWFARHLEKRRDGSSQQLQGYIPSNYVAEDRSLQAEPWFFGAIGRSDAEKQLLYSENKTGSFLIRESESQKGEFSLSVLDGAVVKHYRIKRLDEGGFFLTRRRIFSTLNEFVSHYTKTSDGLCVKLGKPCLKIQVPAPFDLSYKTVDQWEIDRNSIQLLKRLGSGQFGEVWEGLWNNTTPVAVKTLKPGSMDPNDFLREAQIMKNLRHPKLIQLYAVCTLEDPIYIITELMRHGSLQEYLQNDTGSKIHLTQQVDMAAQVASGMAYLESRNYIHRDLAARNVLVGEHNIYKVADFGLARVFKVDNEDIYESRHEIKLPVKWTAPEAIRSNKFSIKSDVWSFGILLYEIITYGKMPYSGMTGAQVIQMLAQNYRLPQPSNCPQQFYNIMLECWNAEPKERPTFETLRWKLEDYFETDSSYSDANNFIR

## Cc1nc(Nc2ncc(C(=O)Nc3c(C)cccc3Cl)s2)cc(N2CCN(CCO)CC2)n1 [dasatinib]
[1]
  DDA-MS / % Intensity (30 µM/DMSO): 1.947%
[2]
  DDA-MS / % Intensity (30 µM/DMSO): 4.526%
[3]
  DDA-MS / % Intensity (30 µM/DMSO): 6.597%
[4]
  DDA-MS / % Intensity (30 µM/DMSO): 29.04%
[5]
  DDA-MS / % Intensity (30 µM/DMSO): 9.795%
[6]
  DDA-MS / % Intensity (30 µM/DMSO): 10.66%
[7]
  DDA-MS / % Intensity (30 µM/DMSO): 1.02%
[8]
  DDA-MS / % Intensity (30 µM/DMSO): 9.69%
[9]
  DDA-MS / % Intensity (30 µM/DMSO): 5.626%
[10]
  DDA-MS / % Intensity (30 µM/DMSO): 0.4709%
